Assay results from paper PMC9814219 (Communications Chemistry, 2020).

Key:
aAbPPO4 = target: T1, aAbPPO4 (Agaricus bisporus, UniProt C7FF05); assay: activity on dopamine after pre-incubation and ultrafiltration, […] nm; format: biochemical
T1 construct: gene PPO4; N-terminal GST tag cleaved off with HRV 3C; expressed in E. coli BL21(DE3)
T1 sequence (C7FF05 1-379): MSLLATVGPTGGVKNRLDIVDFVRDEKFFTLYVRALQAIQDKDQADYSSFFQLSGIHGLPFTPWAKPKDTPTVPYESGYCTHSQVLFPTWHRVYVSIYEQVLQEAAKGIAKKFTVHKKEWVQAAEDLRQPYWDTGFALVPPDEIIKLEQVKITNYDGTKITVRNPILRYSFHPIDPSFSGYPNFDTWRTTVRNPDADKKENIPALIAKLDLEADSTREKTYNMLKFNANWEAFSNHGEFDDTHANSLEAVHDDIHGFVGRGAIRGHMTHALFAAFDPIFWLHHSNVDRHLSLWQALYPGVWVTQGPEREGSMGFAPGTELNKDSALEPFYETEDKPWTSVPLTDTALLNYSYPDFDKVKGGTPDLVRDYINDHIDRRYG

EstA = target: T2, EstA (Clostridium botulinum, UniProt A5I055)
T2 construct: gene lipA
T2 sequence (A5I055 1-480): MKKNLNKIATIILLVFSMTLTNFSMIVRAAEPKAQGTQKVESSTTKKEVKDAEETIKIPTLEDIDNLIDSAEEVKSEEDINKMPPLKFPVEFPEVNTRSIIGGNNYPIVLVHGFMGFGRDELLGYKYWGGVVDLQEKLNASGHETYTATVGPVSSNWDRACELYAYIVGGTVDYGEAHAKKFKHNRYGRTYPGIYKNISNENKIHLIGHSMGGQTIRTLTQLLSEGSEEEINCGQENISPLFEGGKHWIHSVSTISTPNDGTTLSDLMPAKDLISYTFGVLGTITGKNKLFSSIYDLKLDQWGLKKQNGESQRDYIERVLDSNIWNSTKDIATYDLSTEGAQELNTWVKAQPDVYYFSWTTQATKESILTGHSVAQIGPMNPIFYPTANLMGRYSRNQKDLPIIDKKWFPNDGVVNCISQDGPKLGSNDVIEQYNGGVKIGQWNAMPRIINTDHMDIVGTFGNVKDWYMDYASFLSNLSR

In the case of `O=S(O)O` [sodium bisulphite], the “activity on dopamine after pre-incubation and ultrafiltration, 475 nm” value (aAbPPO4) is reported as “the loss of PPO activity of aAbPPO4 was verified by an activity assay with dopamine”.

In the case of `CCCC(=O)Oc1ccc([N+](=O)[O-])cc1` [para-nitrophenyl butyrate], the “photometric, 4-nitrophenol release at 405 nm” value (EstA) is reported as “on the model substrate para-nitrophenyl butyrate (pNPB) compared to the uncleaved enzyme”.
